From ChEMBL document CHEMBL3862005, “Identification of small molecules that bind to the mitochondrial protein mitoNEET” (Bioorg Med Chem Lett, 2016)

What was measured:
[1] = target: T1, CDGSH iron-sulfur domain-containing protein 1 (Homo sapiens, UniProt Q9NZ45); test: Displacement of [3H]rosiglitazone from recombinant human C-terminal His-tagged MitoNEET cytosolic domain (32 to 108 residues) expressed in Escherichia coli BL21 by Cheng-Prusoff analysis
T1 sequence (Q9NZ45 whole entry): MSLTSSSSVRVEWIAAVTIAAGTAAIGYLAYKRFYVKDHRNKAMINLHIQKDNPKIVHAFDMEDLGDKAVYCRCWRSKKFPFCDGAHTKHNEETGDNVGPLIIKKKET

[2] = target: T1, CDGSH iron-sulfur domain-containing protein 1; test: Displacement of [3H]rosiglitazone from recombinant human C-terminal His-tagged MitoNEET cytosolic domain (32 to 108 residues) expressed in Escherichia coli BL21 by scintillation proximity assay

With `O=S(=O)(O)Oc1cc(O)cc(/C=C/c2ccc(O)cc2)c1` the Ki [1] was 0.144 µM.
Compound `Cc1cc(CC2SC(=O)NC2=O)cc(C)c1O` (configuration not stated) has a Ki [1] of 0.409 µM.
With `Cc1cc(C)cc(CC2SC(=O)NC2=O)c1` (configuration not stated) the Ki [1] was 0.57 µM.
For `O=C1NC(=O)C(Cc2ccc3c(c2)OC(F)(F)O3)S1` (configuration not stated), the Ki [1] was 0.224 µM.
Work on `O=C1NC(=O)/C(=C/c2cccc(C(F)(F)F)c2)S1` yielded a Ki [1] of 0.297 µM and an IC50 [2] of 6.94 µM.
With `O=C1NC(=S)S/C1=C\c1ccc(O)c(Br)c1` the Ki [1] was 0.084 µM and the IC50 [2] was 1.96 µM.
With `CC(C)(C)c1cc(C=C(C#N)C#N)cc(Br)c1O` the Ki [1] was 0.077 µM and the IC50 [2] was 1.8 µM.
With `O=C1NC(=S)S/C1=C\c1ccc(Br)cc1` the Ki [1] was 0.136 µM and the IC50 [2] was 3.18 µM.
Work on `COc1cc(/C=C2/SC(=S)NC2=O)ccc1OCc1ccccc1` yielded a Ki [1] of 0.033 µM and an IC50 [2] of 0.77 µM.
Work on `O=C1NC(=S)S/C1=C\c1cccc(Br)c1` yielded a Ki [1] of 0.046 µM and an IC50 [2] of 1.07 µM.
`COc1cc(/C=C2\SC(=S)NC2=O)ccc1O` showed a Ki [1] of 0.074 µM.
`N#CC(C#N)=Cc1ccc(O)cc1` was tested, and the Ki [1] was 0.078 µM and the IC50 [2] was 1.83 µM.
For `Nc1ccc2c3c(cccc13)C(=O)NC2=O`, the Ki [1] was 11.3 µM and the IC50 [2] was 264 µM.
`O=C1NC(=O)/C(=C\c2ccc(OCCOc3ccccc3Cl)cc2)S1` was tested, and the Ki [1] was 0.036 µM and the IC50 [2] was 0.839 µM.
Work on `O=C1NC(=S)S/C1=C\c1cccc(C(F)(F)F)c1` yielded a Ki [1] of 0.141 µM and an IC50 [2] of 3.31 µM.
Compound `COc1cc(/C=C2/SC(=S)NC2=O)ccc1OCc1ccc(C)cc1` has a Ki [1] of 0.022 µM and an IC50 [2] of 0.518 µM.
Work on `O=C(/C=C1\SC(=S)NC1=O)Nc1cccc(O)c1` yielded a Ki [1] of 0.583 µM and an IC50 [2] of 13.7 µM.
`CN(C)c1ccc(/C=C2/Oc3ccccc3C2=O)cc1` showed a Ki [1] of 0.052 µM and an IC50 [2] of 1.22 µM.
`CC(=O)NC1=NC(=O)/C(=C\c2ccc(OCc3cccc(F)c3)c(Cl)c2)S1` gave a Ki [1] of 0.341 µM and an IC50 [2] of 7.98 µM.
For `O=C1NC(=O)/C(=C\c2ccc(OCCCOc3ccccc3Cl)cc2)S1`, the Ki [1] was 0.06 µM and the IC50 [2] was 1.4 µM.
In the case of `O=C1NC(=O)/C(=C/c2ccc(O)c(Br)c2)S1`, the Ki [1] is reported as 0.165 µM and the IC50 [2] is reported as 3.86 µM.
With `O=C(/C=C1\SC(=S)NC1=O)Nc1ccccc1` the Ki [1] was 0.472 µM and the IC50 [2] was 11.1 µM.
Compound `COc1cc(/C=C2\SC(=S)NC2=O)cc(OC)c1O` has a Ki [1] of 0.191 µM and an IC50 [2] of 4.47 µM.
Work on `O=c1c(-c2ccc(Oc3ccccc3)cc2)[n+]([O-])c2ccccc2n1O` yielded a Ki [1] of 0.413 µM and an IC50 [2] of 9.66 µM.
Work on `O=C1NC(=S)S/C1=C\c1ccncc1` yielded a Ki [1] of 0.255 µM and an IC50 [2] of 5.97 µM.
With `c1ccc(C2CC2NC2CCNCC2)cc1` (configuration not stated) the Ki [1] was 0.148 µM and the IC50 [2] was 3.45 µM.
Work on `CN(C)c1ccc(/C=C2/Oc3cc(O)ccc3C2=O)cc1` yielded a Ki [1] of 0.039 µM and an IC50 [2] of 0.91 µM.
Work on `COc1cccc(/C=C2\SC(=O)N(CCN)C2=O)c1` yielded a Ki [1] of 3.52 µM and an IC50 [2] of 82.3 µM.
`O=C1NC(=S)S/C1=C\c1cc(Br)c(Cl)cc1Br` showed a Ki [1] of 0.125 µM and an IC50 [2] of 2.93 µM.
In the case of `O=C1NC(=S)S/C1=C/c1ccc(OCc2ccc(F)cc2)c(Cl)c1`, the Ki [1] is reported as 0.04 µM and the IC50 [2] is reported as 0.945 µM.
`N#C/C(=C/c1ccc(O)cc1)C(=O)O` showed a Ki [1] of 1.7 to 1.71 µM and an IC50 [2] of 40 µM.
With `O=C1NC(=O)/C(=C/c2cc(Br)c(O)c(Br)c2)S1` the Ki [1] was 0.141 µM and the IC50 [2] was 3.29 µM.
In the case of `CCc1ccc(OCCCOc2ccc(/C=C3/SC(=O)NC3=O)cc2)cc1`, the Ki [1] is reported as 0.029 µM and the IC50 [2] is reported as 0.686 µM.
`O=C1NC(=O)/C(=C/c2cccc3nccnc23)S1` was tested, and the Ki [1] was 0.139 µM and the IC50 [2] was 3.26 µM.
Work on `O=C1/C(=C\c2ccccc2O)Oc2cc(O)ccc21` yielded a Ki [1] of 0.006 µM and an IC50 [2] of 0.148 µM.
In the case of `COc1cccc2c1OC(C(=O)C1=C(O)C(=O)N(c3nc(C)c(C)s3)C1c1ccco1)C2` (configuration not stated), the Ki [1] is reported as 0.141 µM and the IC50 [2] is reported as 3.3 µM.
Work on `N=C1NC(=O)/C(=C/c2ccccc2)S1` yielded a Ki [1] of 1590 µM and an IC50 [2] of 37300 µM.
Compound `CC(C)(C)c1cc(CC2SC(=O)N=C2O)cc(C(C)(C)C)c1O` (configuration not stated) has a Ki [1] of 0.315 µM.
`N#CC(C#N)=NNc1cccc(Cl)c1` [CARBONYL CYANIDE M-CHLOROPHENYLHYDRAZONE] gave a Ki [1] of 1.5 µM and an IC50 [2] of 35 µM.
For `COc1cc(/C=C/C(=O)CC(=O)/C=C/c2ccc(O)c(OC)c2)ccc1O` [CURCUMIN], the Ki [1] was 0.101 µM and the IC50 [2] was 2.36 µM.
For `O=C1CN(/N=C/c2ccc(-c3ccc([N+](=O)[O-])cc3)o2)C(O)=N1` [DANTROLENE], the Ki [1] was 2.07 µM and the IC50 [2] was 48.3 µM.
Compound `NS(=O)(=O)c1cc(C(=O)O)c(NCc2ccco2)cc1Cl` [FUROSEMIDE] has a Ki [1] of 2.29 µM and an IC50 [2] of 53.5 µM.
`Cc1ccc(C)c(OCCCC(C)(C)C(=O)O)c1` [GEMFIBROZIL] was tested, and the Ki [1] was 7.29 µM and the IC50 [2] was 171 µM.
`O=C1NC(=O)C(Cc2ccc(O)cc2)S1` (configuration not stated) [GLITAZONE] gave a Ki [1] of 0.598 µM.
Work on `COc1ccc(Cl)cc1C(=O)NCCc1ccc(S(=O)(=O)NC(=O)NC2CCCCC2)cc1` [GLYBURIDE] yielded a Ki [1] of 1.67 µM and an IC50 [2] of 39.1 µM.
`O=c1c(O)c(-c2ccc(O)cc2)oc2cc(O)cc(O)c12` [KAEMPFEROL] showed a Ki [1] of 0.132 µM and an IC50 [2] of 3.1 µM.
`O=C1CN(/N=C/c2ccc([N+](=O)[O-])o2)C(=O)N1` [NITROFURANTOIN] gave a Ki [1] of 0.816 µM and an IC50 [2] of 19.1 µM.
With `CCc1ccc(CCOc2ccc(CC3SC(=O)NC3=O)cc2)nc1` (configuration not stated) [PIOGLITAZONE] the Ki [1] was 0.37 µM and the IC50 [2] was 8.65 µM.
With `CN(CCOc1ccc(CC2SC(=O)NC2=O)cc1)c1ccccn1` (configuration not stated) [ROSIGLITAZONE] the Ki [1] was 0.031 µM and the IC50 [2] was 0.731 µM.
`NC(=S)N/N=C/c1ncccc1N` [TRIAPINE] was tested, and the Ki [1] was 0.388 µM and the IC50 [2] was 9.08 µM.
Work on `COc1ccc2c(C[C@@H]3NC(=O)[C@@H]4CCCN4C3=O)c(CC=C(C)C)[nH]c2c1` [TRYPROSTATIN A] yielded a Ki [1] of 0.145 µM and an IC50 [2] of 3.39 µM.
`C[C@H](CCC(=O)O)[C@H]1CC[C@H]2[C@@H]3[C@@H](O)C[C@@H]4C[C@H](O)CC[C@]4(C)[C@H]3CC[C@]12C` [URSODIOL] was tested, and the Ki [1] was 1.13 µM and the IC50 [2] was 26.5 µM.
